Data on two compounds can be found in patent US12533338B2, “Enhanced gene delivery to natural killer cells, hematopoietic stem cells and macrophages” (priority 2015, dated 2026).

Entries after “also recorded” stand apart in the source; their conditions may differ. Read-outs that look alike come from different tables or passages of the source.

In series [1] the test system is primary human NK cells. As to the kind of experiment: Lentiviral transduction (LeGO-G2, GFP expression) of primary NK cells. It is filed as cell-based. The note with it: 6 μM during lentiviral transduction, FIG. 1. The method, then:
(§1) FIG. 1 contains two bar graphs showing the inhibition of innate immune signaling with iX enhances lentiviral transduction efficiency in NK cells. NK-92 cells and primary human NK cells isolated from healthy donor PBMCs were subjected to lentiviral transduction in the presence of 6 μM BX795 or iX for 6 hours. GFP expression is acquired 72 hours later. +cell percentages are shown on graph.
[…]. Next day cells were transfected with 30 μg of LeGO-G2 plasmid (courtesy of Prof. Boris Fehse, University Medical Center Hamburg-Eppendorf, Hamburg, Germany), 15 μg of pMDLg/pRRE (Addgene, Cambridge, Mass., USA), 10 μg of pRSV-REV (Addgene) and 5 μg of phCMV-VSV-G (Addgene) using calcium phosphate transfection kit (Sigma-Aldrich) in the presence of 25 μM Chloroquine (Sigma-Aldrich). […]
The peripheral blood mononuclear cells (PBMCs) were isolated by gradient centrifugation, using Lymphoprep (Nyegaard, Oslo, Norway) and washed twice with phosphate-buffered saline (PBS) (GIBCO, Grand Island, N.Y., USA). Cell count and viability were assessed by Turk and Trypan Blue dye exclusion. […]
(§2) All antibody stainings for flow cytometry were done according to the following protocol: For surface stainings, the cells were washed once with PBS and incubated with appropriate amounts of antibody at 4° C. for 30 min. […] Data were analysed with the FlowJo software (TreeStar Inc.). […]

In series [2] the test system is NK-92 cells. As to the kind of experiment: Lentiviral transduction (GFP expression) of NK-92 cell line. The format is cell-based, human. The settings on record: 6 μM during lentiviral transduction, NK-92, FIG. 1. How it is done:
as §1
[…]. Next day cells were transfected with 30 μg of LeGO-G2 plasmid (courtesy of Prof. Boris Fehse, University Medical Center Hamburg-Eppendorf, Hamburg, Germany), 15 μg of pMDLg/pRRE (Addgene, Cambridge, Mass., USA), 10 μg of pRSV-REV (Addgene) and 5 μg of phCMV-VSV-G (Addgene) using calcium phosphate transfection kit (Sigma-Aldrich) in the presence of 25 μM Chloroquine (Sigma-Aldrich). 10 hours after transfection, the medium was changed and thereafter virus containing supernatant was collected every 24 hours for 2-3 days and stored in −80° C. until further use. A small aliquot from each production was used to determine viral titers by transduction of 293FT cells with serially diluted amounts of virus supernatant. […]
as §2

The subject of series [3] is NK cells. The series is described as follows: Dose dependence of lentiviral transduction with LeGO-G2 virus, GFP+ cells by flow cytometry. The format is cell-based, human. How it is done:
Primary human NK cells and NK-92 cells are transduced with LeGO-G2 virus in the presence of varying doses of BX795 or iX for 6 hours. GFP expression is analyzed by flow cytometry 72 hours after transduction. GFP+ cell percentages are shown on graph. Data from three independent experiments, each run in triplicates.
For each lentiviral transduction, 0.25×10^6 NK cells per well were seeded in a 24-well plate (BD Biosciences) and mixed with an appropriate amount of virus supernatant in the presence of 8 μg/ml of protamine sulfate (Sigma-Aldrich) or polybrene (Sigma-Aldrich) in a final volume of no more than 1 ml. The cytokines were replenished and plates were centrifuged at 1000×g for 1 hour at room temperature. After centrifugation, without removing viral supernatants, the plates were incubated at 37° C., 5% CO2 for 4-6 hours. At the end of the incubation, a second centrifugation at 1000×g for 1 hour at room temperature was carried out, after which the supernatants were removed from the wells and 1 ml of fresh NK cell growth medium (CellGro SCGM supplemented with 10% Human AB Serum) per well was added. The cells were maintained in this medium with daily addition cytokines (IL-2: 1000 U/ml, and IL-21: 20 ng/ml. Combinations of cytokines were used as indicated in FIG. 1. Only IL-2 and IL-21 were used in the rest of the experiments) for at least 3 days before acquisition of eGFP expression was carried out. In indicated experiments, the following inhibitors were present during the transduction: BX795 (Invivogen) and (5Z)-7-Oxozeaenol (iX) (Tocris).
For the transduction of cell lines, 2×10^5 cells per well were seeded into 24-well plates. Treatment with 6 μM BX795 and (5Z)-7-Oxozeaenol (iX) was initiated simultaneously with the transduction process. Appropriate amount of viral supernatants were added into the wells along with protamine sulfate (NK92, cells) and the total volume was adjusted to 500 μl. The plates were centrifuged at 1000×g for 1 hour followed by incubation at 37° C., 5% CO2 for 4-6 hours, after which the virus containing supernatant was removed and fresh growth media was added. The cells were grown for at least 3 days before acquisition of eGFP expression was carried out.
All antibody stainings for flow cytometry were done according to the following protocol: For surface stainings, the cells were washed once with PBS and incubated with appropriate amounts of antibody at 4° C. for 30 min. The labeled cells were then washed with PBS and fixed in 1% PFA prior to data acquisition. Data acquisition was done on a FACSCalibur (BD Biosciences), CyFlow ML (Partec GmbH, Munster, Germany) and LSRII-Fortessa (BD Biosciences) with standard filters. Data were analysed with the FlowJo software (TreeStar Inc.). […]

For series [4], the system named is CD34+ HSCs. The series is described as follows: CRISPR/Cas9 gene editing of Beta 2 Microglobulin, loss of B2M expression by flow cytometry. It is filed as cell-based, human. The settings on record: 1 μM iX, hematopoietic stem cells, FIG. 7, n=4.
Excerpt: (§3) The recent emergence of the clustered, regularly interspaced, palindromic repeats (CRISPR) system for gene editing has the potential to overcome these limitations. The CRISPR technology utilizes a fixed nuclease, often the CRISPR-associated protein 9 (Cas9) from Streptococcus pyogenes, in combination with a short guide RNA (gRNA) to target the nuclease to a specific DNA sequence. We confirmed that gRNA recognition and thus editing efficacy could be increased with introduction of iX inhibitor. […]
(§4) The following commercially available guide RNAs from Origene Technologies were tested against Beta 2 Microglobulin: […] […] 48 hours post-transfection, cells were stained with anti-B2M antibody (clone:2M2, Biolegend) to compare loss of (32 m expression. Cells were then analysed using flowcytometry as described below.
as §2

Series [5] deals with NK92 cell line. Described as above. The format is cell-based, human. The note with it: 1 μM iX, NK cells (NK92), FIG. 7, n=4.
Excerpt: as §3, §4, §2

Series [6] concerns Human primary macrophages. The description is as above. The format is cell-based. The note with it: 1 μM iX, FIG. 7, n=4.
Excerpt: as §3, §4, §2

Series [7] deals with NK cells. The series is described as follows: Annexin-V/PI staining for toxicity. It is filed as cell-based. The settings on record: for toxicity on NK cells (apoptotic and dead cells) compared to DMSO controls: 1.5 μM; for toxicity on NK cells (apoptotic and dead cells): 6 μM. From the text: FIG. 2B contains two bar graphs comparing apoptotic to dead Annexin −V^+/PI^−cells.
Remarkably, the use of iX at the optimum concentration presents no immediate toxic effects on NK cells as determined by Annexin-V/PI staining after […] treatment (FIG. 2b).

Series [8] relates to RIG-I. The series is described as follows: RIG-I expression at protein level during lentiviral transduction. It is filed as cell-based. The settings on record: for change in RIG-I expression at the protein level: after the 6 hour transduction period; for change in RIG-I expression: at 24 hours, FIG. 3. An excerpt:
(§5) FIG. 3 contains photos of a gel showing iX treatment during lentiviral transduction decreases RIG-I and IRF-3.

Series [9] has as its system IRF3. As to the kind of experiment: IRF3 expression at protein level during lentiviral transduction. It is filed as cell-based. The note with it: for change in IRF3 expression at the protein level: after the 6 hour transduction period; for change in IRF3 expression: at 24 hours, FIG. 3.
Excerpt: as §5

Series [10] has as its system NK92 cells. As to the kind of experiment: IFNγ secretion upon exposure to lentiviral particles. The note with it: FIG. 4. The format is cell-based, human. An excerpt:
FIG. 4 contains two bar graphs showing that iX treatment interferes with anti-viral cytokines IFNγ and TNF secretion.
(FIG. 4). […] (FIG. 4). […] (FIG. 4).

The subject of series [11] is NK-92 cells. As to the kind of experiment: Gene expression profiling by RNAseq during lentiviral transduction. The format is cell-based, human. The note with it: end of 6 hour transduction, FIGS. 6A-H. How it is done:
Gene expression profiling by RNAseq for identification of pathways triggered by lentivirus entry in the absence and presence of small molecule inhibitors are assessed. NK-92 cells are transduced as previously described. At the end of the 6 hour transduction protocol, RNA from the cells is extracted and sequenced on a HiSeq 2500 instrument. After quality control, the reads are mapped to the human genome using the STAR aligner and gene abundance is estimated with HT-Seq. Differential expression is analyzed using DeSeq software. […] (FIG. 5).

The subject of series [12] is NK cells. The note with it: cited from earlier work.

As to `COc1cc(O)c2c(c1)/C=C/C[C@H](O)[C@H](O)C(=O)/C=C\C[C@H](C)OC2=O` [iX, (5Z)-7-Oxozeaenol], in [1], the “improvement in lentiviral gene delivery” value is “statistically significant improvement”. In addition, in series [2], the “improvement in lentiviral gene delivery” value is “statistically significant improvement”. Further, in [3] (NK cells), the “enhancement of lentiviral gene delivery compared to BX795” value is “to a further extent; also recorded: significantly higher extent” and the “optimum dose for lentiviral gene delivery” value stood at 1.5 µM. For the same compound, the “effect of concentration on genetic modification efficiency” value in series [3] (varying doses, FIG. 2A) is given as “dose-dependent effect”. In addition, the “β2M gene editing efficacy” value in [4] is given as “increased (32M editing significantly”. Moreover, the “β2M gene editing efficacy” value in [5] was “increased (32M editing significantly”. In addition, the “β2M gene editing efficacy” value in series [6] is given as “increased (32M editing significantly”. In [7], the “toxicity on NK cells (apoptotic and dead cells) compared to DMSO controls” value is given as “no significant toxicity”; the “toxicity on NK cells (apoptotic and dead cells)” value is “no signs of immediate toxicity”. Moreover, in series [8], the “extent of downregulation in RIG-I compared to BX795” value was “significantly more”, the “change in RIG-I expression at the protein level” value is reported as “not detectable” and the “change in RIG-I expression” value was “significant decrease”. For the same compound, in [9], the “extent of downregulation in IRF3 compared to BX795” value was “significantly more”, the “change in IRF3 expression at the protein level” value is reported as “not detectable” and the “change in IRF3 expression” value is on record as “significant decrease”. Moreover, the “secretion of IFNγ” value in [10] (six hours, during lentiviral gene delivery) is given as “significantly decreased”. In series [11], the “effect on anti-viral response pathways at mRNA level” value is on record as “affected pathways associated with anti-viral responses”.
For the compound `O=C(NCCCNc1nc(Nc2cccc(NC(=O)N3CCCC3)c2)ncc1I)c1cccs1` [BX795], the “optimum dose for lentiviral gene delivery” value in series [3] (NK cells) amounted to 6 µM. In series [7], the “toxicity on NK cells (apoptotic and dead cells) compared to DMSO controls” value is reported as “no toxicity”; the “toxicity on NK cells (apoptotic and dead cells)” value is given as “quite small but statistically significant increase”. Moreover, in series [8], the “change in RIG-I expression at the protein level” value is recorded as “not detectable” and the “change in RIG-I expression” value was “significant decrease”. In series [9], the “change in IRF3 expression at the protein level” value is on record as “not detectable” and the “change in IRF3 expression” value was “significant decrease”. Moreover, the “secretion of IFNγ” value in series [10] (24 hours after exposure to lentiviral particles) is on record as “significantly trigger similar effect”. Further, the “effect on anti-viral response pathways at mRNA level” value in series [11] is “failed to fully suppress similar anti-viral responses”. Also, the “transduction efficiency in NK cells” value in [12] (previously reported (Sutlu et al., 2012)) was “dramatically increases”. In addition, the “effect of concentration on genetic modification efficiency” value in series [12] (shown previously) was “dose-dependent effect”.
